Data published in ChEMBL document CHEMBL1201862, “PubChem BioAssay data set” (2004).
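Test compounds were applied to cells in 96-well plates for 48 hours at 5 doses. GI50: concentration for 50% inhibition of growth.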 The source made the active and inactive calls. No stated cut-off is given here; in the data, active = GI50 up to about 1.1 µM and inactive = higher.

Columns and labels:
Experiment in all cases: growth of human tumour cells (NCI), 48 h
RXF 393 = system: RXF 393
HCT-116 = system: HCT-116
EKVX = system: EKVX
T47D = system: T47D
CCRF-CEM = system: CCRF-CEM
PC-3 = system: PC-3
Hs-578T = system: Hs-578T
SK-MEL-5 = system: SK-MEL-5
NCI-H23 = system: NCI-H23
MDA-MB-231 = system: MDA-MB-231
IGROV-1 = system: IGROV-1
HOP-92 = system: HOP-92
ACHN = system: ACHN
Malme-3M = system: Malme-3M
HL-60 = system: HL-60
SF-268 = system: SF-268
NCI-H522 = system: NCI-H522
OVCAR-8 = system: OVCAR-8
SF-539 = system: SF-539

Measured: GI50

COc1ccc(C2(CC(C)C)CCNC2)cc1OC (stereo not given)
inactive: RXF 393 41.9 µM | HCT-116 > 100 µM | EKVX 86.1 µM | T47D 31.5 µM | CCRF-CEM > 100 µM | PC-3 > 100 µM | Hs-578T > 100 µM | SK-MEL-5 > 100 µM | NCI-H23 78.2 µM | MDA-MB-231 > 100 µM | IGROV-1 26.5 µM | HOP-92 19.8 µM | ACHN > 100 µM | Malme-3M > 100 µM | HL-60 > 100 µM | SF-268 78.7 µM | NCI-H522 > 100 µM | OVCAR-8 > 100 µM

Nc1cc2ncnn2c(SCC(=O)N/N=C/C(Br)=C\c2ccccc2)n1
inactive: RXF 393 15.8 µM | HCT-116 21.7 µM | EKVX 22.5 µM | T47D 3.49 µM | CCRF-CEM 5.77 µM | PC-3 12.6 µM | Hs-578T 23.1 µM | SF-539 16.7 µM | SK-MEL-5 13.4 µM | NCI-H23 10.8 µM | MDA-MB-231 15.5 µM | IGROV-1 11.5 µM | ACHN 16.9 µM | Malme-3M 12.1 µM | HL-60 11.9 µM | NCI-H522 10.6 µM | OVCAR-8 15.9 µM

CC1CCN(c2nnc(Cl)cc2C(=O)c2ccccc2)CC1
inactive: RXF 393 16.9 µM | HCT-116 29.6 µM | EKVX 29.8 µM | T47D 31.5 µM | CCRF-CEM 13.5 µM | PC-3 20.4 µM | Hs-578T 20 µM | SF-539 25.4 µM | SK-MEL-5 16.6 µM | NCI-H23 25.5 µM | MDA-MB-231 27.5 µM | IGROV-1 35.3 µM | HOP-92 16 µM | ACHN 49.9 µM | HL-60 44.4 µM | SF-268 1.67 µM | NCI-H522 26.7 µM | OVCAR-8 58.7 µM

O=C(Nc1ccccc1C(=O)NCc1ccccc1)/C(=C/c1ccccc1O)NC(=O)c1ccccc1
inactive: RXF 393 48.9 µM | HCT-116 > 100 µM | EKVX > 100 µM | T47D 19.5 µM | CCRF-CEM > 100 µM | PC-3 > 100 µM | Hs-578T 69 µM | SF-539 > 100 µM | SK-MEL-5 > 100 µM | NCI-H23 > 100 µM | MDA-MB-231 27.1 µM | IGROV-1 73.1 µM | HOP-92 75.3 µM | ACHN 61 µM | HL-60 55.5 µM | SF-268 54.1 µM | NCI-H522 > 100 µM | OVCAR-8 95.1 µM

N=C1OC(CN2CCN(c3ccccc3)CC2)CN1C(=O)Nc1ccccc1 (stereo not given)
inactive: RXF 393 > 100 µM | HCT-116 > 100 µM | EKVX > 100 µM | T47D > 100 µM | CCRF-CEM 43.3 µM | PC-3 > 100 µM | Hs-578T > 100 µM | SK-MEL-5 > 100 µM | NCI-H23 > 100 µM | MDA-MB-231 > 100 µM | IGROV-1 > 100 µM | HOP-92 > 100 µM | ACHN > 100 µM | Malme-3M > 100 µM | HL-60 53.5 µM | SF-268 > 100 µM | NCI-H522 39.7 µM | OVCAR-8 > 100 µM

C[C@@H]1CC(=O)[C@@]2(C)[C@](O)(CCC3O[C@]32C)[C@@]12CC(c1ccoc1)OC2=O (stereo not given in full)
inactive: RXF 393 31.8 µM | HCT-116 34.5 µM | EKVX > 100 µM | T47D > 100 µM | CCRF-CEM 20.5 µM | PC-3 > 100 µM | Hs-578T 33.8 µM | SF-539 > 100 µM | SK-MEL-5 44.3 µM | NCI-H23 > 100 µM | MDA-MB-231 > 100 µM | IGROV-1 > 100 µM | ACHN 70.6 µM | Malme-3M 50.7 µM | HL-60 24.9 µM | NCI-H522 45.6 µM | OVCAR-8 > 100 µM

Cc1cn(CCCCCOC(=O)NC(CCCNC(=N)N)C(=O)O)c(=O)[nH]c1=O (stereo not given)
inactive: RXF 393 33.3 µM | HCT-116 37.6 µM | EKVX 40.3 µM | T47D > 100 µM | CCRF-CEM 37.2 µM | PC-3 40.8 µM | Hs-578T 15.5 µM | SF-539 45.7 µM | NCI-H23 40.2 µM | MDA-MB-231 69.8 µM | IGROV-1 38.1 µM | HOP-92 > 100 µM | ACHN 72.3 µM | HL-60 17 µM | SF-268 > 100 µM | OVCAR-8 39.4 µM

COC(=O)C12C3C4(C(=O)OC)C1C1(C(=O)OC)C2C3(C(=O)OC)C41C(=O)N(C(C)C)C(C)C (stereo not given)
inactive: RXF 393 > 100 µM | HCT-116 > 100 µM | EKVX > 100 µM | T47D > 100 µM | CCRF-CEM > 100 µM | PC-3 > 100 µM | Hs-578T > 100 µM | SF-539 > 100 µM | SK-MEL-5 > 100 µM | NCI-H23 > 100 µM | MDA-MB-231 > 100 µM | IGROV-1 > 100 µM | HOP-92 > 100 µM | ACHN > 100 µM | HL-60 > 100 µM | SF-268 > 100 µM | NCI-H522 > 100 µM | OVCAR-8 > 100 µM
